Results from patent US20030087014A1, “Enhanced thermal inactivation of pathogen in a nutriment by acidulant” (Mionix Corp., priority 2001, published 2003).

Tested on: human skin
Experiment: Contact of acidic solution with human skin and nose
Conditions: solution with a pH of less than 0.5

In the case of `O=S(=O)(O)O` [sulfuric acid], the “Irritation of hand put into the solution” value is reported as “an irritation would occur within a relatively short span of time”.
